The results in this text go back to PubChem BioAssay AID1996.

In brackets after ≈: the same amount, converted by molar mass.

The conditions of this series: buffer; pH 7.4; 200.0 µM.
Consider `Cc1cc(C)c(C)c(S(=O)(=O)NCCCN2CCOCC2)c1C`, for which the solubility (kinetic) was more than 51.1 µg/mL.
Under `Cn1c(-c2ccccn2)[n+](C)c2ccccc21.[Cl-]` stands more than 39 µg/mL; under `Cc1cccc(NC(=S)NCc2ccccc2Cl)c1C`, less than 0.3 µg/mL.
The result for `CC1=C(C(=O)Nc2cccc(C(=O)NC(C)C)c2)SCCO1` reads 47.9 µg/mL (≈ 149 µM); that for `CN(Cc1nc(-c2ccc(C(F)(F)F)cc2)no1)C1CCOCC1`, 37.3 µg/mL (≈ 109 µM); that for `CCOc1ccccc1NC(=O)CN1C(=O)C(C)SC(C)C1=O` (centres undefined), 34.5 µg/mL (≈ 103 µM).
For the molecule `CC(=O)Nc1ccc(NC(=O)CSc2ccc([N+](=O)[O-])cn2)cc1`, the solubility (kinetic) was 3 µg/mL (≈ 8.66 µM).
As for `O=C(NCCO)C(=O)Nc1cc2c3c(c1)CC(=O)N3CCC2`, the kinetic solubility is more than 45.5 µg/mL.
Molecule `COc1ccc(C(=O)Nc2nc3ccccc3[nH]2)cc1` returned a kinetic solubility of 4.1 µg/mL (≈ 15.3 µM).
The result for `Cn1c(C(=O)O)c(S(=O)(=O)c2ccc(Cl)cc2)c2ccccc21` reads 51.8 µg/mL (≈ 148 µM).
Under `Cn1c(=O)c2c(ncn2CC(=O)OCC(=O)Nc2ccc(F)cc2Cl)n(C)c1=O` stands more than 63.6 µg/mL.
The result for `Cc1cc([N+](=O)[O-])ccc1NC(=O)CCC(=O)N1CCCC1` reads more than 45.8 µg/mL; that for `Cc1onc(-c2c(Cl)cccc2Cl)c1C(=O)NN1CCCCCC1`, more than 55.2 µg/mL.
`COc1ccc(C(=O)O/N=C(/c2ccccc2)c2ccncc2)cc1` came in with a solubility (kinetic) of 5.6 µg/mL (≈ 16.8 µM).
Under `O=c1ccccn1CCOc1ccc(Cl)cc1` stands more than 37.5 µg/mL; under `O=C(CNC(=O)c1ccco1)Nc1ccc2c(c1)OCCO2`, more than 45.3 µg/mL; under `O=C(NCc1ccccc1F)C(c1ccccc1)c1ccccc1`, 0.9 µg/mL (≈ 2.82 µM).
`N#CCSc1ccccc1NC(=O)CN1C(=O)C(=O)N(Cc2ccccc2)C1=O` returned a solubility (kinetic) of 43.3 µg/mL (≈ 106 µM).
The result for `O=C(O)C1CCCN(S(=O)(=O)c2ccc(Br)s2)C1` (centres undefined) reads 52.1 µg/mL (≈ 147 µM); that for `CCOC(=O)/C=C1/N(C)c2ccccc2C1(C)C`, less than 0.5 µg/mL; that for `CSc1nc2nc(-c3cccs3)cc(C(F)(F)F)c2c(=O)[nH]1`, 2.5 µg/mL (≈ 7.28 µM).
As to `Cc1cccc(-c2cnn(-c3ccccc3)c2N)c1`, the kinetic solubility is more than 37.4 µg/mL.
Take `COc1cccc(C2=NOC(C(=O)Nc3cc(C)on3)C2)c1OC` (centres undefined): the solubility (kinetic) came to 46.5 µg/mL (≈ 140 µM).
The result for `N#CCc1cccnc1Sc1ccc(Cl)cc1` reads more than 39.1 µg/mL; that for `CCOC(=O)c1c(NC(=O)C2CCCO2)sc(C)c1C` (centres undefined), 30 µg/mL (≈ 101 µM); that for `CN(CC(=O)Nc1ccccc1Cl)CC(=O)Nc1cccc2ccccc12`, 45.3 µg/mL (≈ 119 µM).
Consider `Cc1cc(C)nc(NC(=O)c2ccccc2O)n1`, for which the solubility (kinetic) is more than 36.5 µg/mL.
Under `CC(=O)NC(CC(=O)NCc1ccncc1)c1ccccc1` (centres undefined) stands more than 44.6 µg/mL; under `CN(C(=O)COC(=O)c1cc[n+]([O-])cc1)c1ccccc1`, more than 42.9 µg/mL; under `CCOc1ccc2oc(=O)cc(CN3CCOCC3)c2c1`, 41.5 µg/mL (≈ 143 µM).
The result for `CC(C)(C)C(=O)Nc1ccc(-c2cnco2)cc1` reads more than 36.6 µg/mL; that for `Cc1nnc(SCC(=O)N(C)c2ccccc2)n1-n1cccc1`, more than 49.1 µg/mL; that for `Cc1cc2oc(=O)cc(CN3CCOCC3)c2cc1C(C)C`, 3.4 µg/mL (≈ 11.3 µM).
The result for `COc1ccccc1NC1=C(Cl)C(=O)OC1OC(=O)c1ccco1` (centres undefined) reads 47.3 µg/mL (≈ 135 µM); that for `CCc1cc2c(SCC(=O)NC3CC3)ncnc2s1`, more than 44 µg/mL.
For `Cc1ccc2[nH]c(C(=O)N3CCN(C(c4ccccc4)c4ccccc4)CC3)cc2c1`, the kinetic solubility was found to be 1 µg/mL (≈ 2.44 µM).
`Cl.c1csc(CN2CCNCC2)c1` displayed a solubility (kinetic) of more than 38.3 µg/mL.
Turning to `CC(C)CCn1c(=O)c(C(=O)NCc2ccco2)c(O)c2ccccc21`, the kinetic solubility is less than 0.4 µg/mL.
The result for `O=C(O)C1CCC(CNS(=O)(=O)c2ccc(Cl)cc2)CC1` (centres undefined) reads 43 µg/mL (≈ 130 µM); that for `Cl.c1cncc(CNCCc2c[nH]c3ccccc23)c1`, 38.5 µg/mL.
The result for `O=C1CC(NC(=O)c2ccc(Cl)cc2)C(=O)N1` (centres undefined) reads more than 37.9 µg/mL; that for `COc1ccccc1N1C(=O)S/C(=C\c2cccs2)C1=O`, less than 0.7 µg/mL; that for `S=C1NCN(Cc2ccco2)CN1`, more than 29.6 µg/mL.
Take `Cc1ccc(N2CC(C(=O)N3CCOCC3)CC2=O)cc1Cl` (centres undefined): the solubility (kinetic) is more than 48.4 µg/mL.
Regarding `O=C(NCCCNC(=O)c1ccc(F)cc1)c1ccc(F)cc1`, the kinetic solubility was found to be 30.9 µg/mL (≈ 97.1 µM).
The result for `CC(=O)Nc1ccc(NC(=O)CNC(=O)c2cccc(C)c2)cc1` reads 20.4 µg/mL (≈ 62.7 µM).
As to `O=C(c1cc2ccccc2s1)N1CCN(c2ccccn2)CC1`, the solubility (kinetic) worked out at 8.9 µg/mL (≈ 27.5 µM). Compared with the last molecule, the solubility kinetic is about 2.3-fold lower.
The result for `CCOc1ccc(Cl)cc1S(=O)(=O)N1CCC(C(=O)NCc2ccco2)CC1` reads 3.6 µg/mL (≈ 8.43 µM); that for `CSc1ncc(-c2ccc(Cl)cc2)[nH]1`, 29.3 µg/mL (≈ 130 µM).
Under `Cc1ccc(C(O)P(=O)(OC(C)C)c2ccc(N(C)C)cc2)cc1` (centres undefined) stands more than 52.1 µg/mL; under `COc1ccc(CCNC(=O)c2ccc3c(c2)OCO3)cc1`, 2.5 µg/mL (≈ 8.35 µM); under `O=C(CSc1ccccc1)Nc1ccc2c(c1)OCCO2`, more than 45.2 µg/mL.
Take `O=C(CN1C(=O)NC(c2ccccc2)(c2ccccc2)C1=O)NCCc1ccc(F)cc1`: the kinetic solubility was 7.6 µg/mL (≈ 17.6 µM).
The result for `CC1CCCCC1Nc1ncnc2sccc12` (centres undefined) reads more than 37.1 µg/mL; that for `CCc1sc(C(=O)Nc2nc(C)cs2)cc1C`, 7.3 µg/mL (≈ 27.4 µM).
`CN(CCOc1ccccc1)CCOc1ccccc1` yielded a solubility (kinetic) of 32.8 µg/mL (≈ 121 µM).
Under `CC(C)(C)Nc1nc(Cl)nc(NC2CCCCC2)n1` stands 0.2 µg/mL (≈ 0.705 µM).
`C=CCOc1ccc(/C=C2\SC(=S)N(CCC(=O)O)C2=O)cc1` showed a kinetic solubility of 48 µg/mL (≈ 137 µM).
For `COc1cc(/C=C2\SC(=O)N(CCNC(=O)c3c(C)noc3C)C2=O)cc(OC)c1OC`, the solubility (kinetic) worked out at 4.8 µg/mL (≈ 10.4 µM).
The result for `O=S(=O)(Nc1ccc(Cl)cc1)c1ccc2c(c1)CCO2` reads more than 46.5 µg/mL; that for `CCCCn1c(N)c(N(CC)C(=O)CCNC(=O)c2ccc(Cl)cc2)c(=O)[nH]c1=O`, more than 65.4 µg/mL; that for `O=C(NCc1ccccc1C(F)(F)F)C1CCC(=O)N(C2CC2)C1` (centres undefined), more than 51.1 µg/mL.
Under `Cc1noc(C(=O)N(C)c2ccccc2)c1Cl` stands 33.8 µg/mL (≈ 135 µM); under `COc1ccccc1/C=C/C(=O)OCC(=O)Nc1ccc(Cl)cn1`, 1.1 µg/mL (≈ 3.17 µM).
The result for `Cc1cccc(OC(=O)c2cccnc2)c1` reads 12.6 µg/mL (≈ 59.1 µM); that for `CN1CCN(C(=O)c2cc(Cl)cc(Cl)c2)CC1`, more than 41 µg/mL; that for `CCCN(CC(=O)Nc1ccccc1OC)C(=O)c1cc2ccccc2o1`, 25.5 µg/mL (≈ 69.6 µM).
In turn, `Cc1ccc(C(=O)O/N=C(\N)c2ccc(C(F)(F)F)cn2)cc1` yielded a solubility (kinetic) of less than 0.2 µg/mL.
Under `O=C(COc1ccc(Cl)cc1)Nc1ccccc1Cl` stands less than 0.6 µg/mL.
Under `O=C(NCCNC(=O)c1cnccn1)c1ccc(Cl)c(Cl)c1` stands 6.9 µg/mL (≈ 20.3 µM); under `O=C(NCc1ccccc1)c1ccc2ccccc2n1`, 26.3 µg/mL (≈ 100 µM); under `Cc1ccc(S(=O)(=O)N(C)C)cc1NC(=O)C1CCC1`, 39.7 µg/mL (≈ 134 µM).
The result for `O=c1cc(-c2ccccc2)nc(SCCOc2ccccc2Cl)[nH]1` reads 0.4 µg/mL (≈ 1.11 µM).
The molecule `COCCNc1oc(-c2ccccc2Cl)nc1S(=O)(=O)c1ccc(C)cc1` returned a kinetic solubility of 44.1 µg/mL (≈ 108 µM). Against the preceding molecule, the solubility kinetic is about 110-fold higher.
